Reference: patent publication US20230219886A1, “NOVEL SELENO-NSAID ANALOGS AND USES THEREOF” (THE PENN STATE RESEARCH FOUNDATION, priority 2020, published 2023)
Where two headings read alike, the source gives them in different places.

Columns and labels:
[1] = system: PANC-1 (pancreatic carcinoma); assay: MTT cell viability assay, Panc-1; settings: Homo sapiens, PANC-1, 48 h, read-out: cell viability
Procedure: (§1) Cell Culture Conditions. The cell lines were obtained from the American Type Culture Collection (ATCC). PANC-1 and Caco-2 cell lines were maintained in DMEM medium (Gibco); HT-29, HCT-116 and RKO cells were maintained in McCoy's 5A medium (Gibco); and DU-145 and H1299 cells were maintained in RPMI 1640 medium (Gibco), supplemented with 10% fetal bovine serum (FBS; Gibco) and 1% antibiotics (10.00 units/mL penicillin and 10.00 mg/mL streptomycin; Gibco). Cells were preserved in tissue culture flasks at 37° C. and 5% CO2. Culture medium was replaced every three days.
(§2) Cell Viability Assay. The effect of each compound on cell viability was tested using the MTT assay (81). Briefly, 9000 cells/well were grown in 96-well plates for 12 h. Then these cells were incubated with either DMSO (control) or nine different concentration between 0.01-50 μM of the test compounds for 24, 48, and 72 h. Three hours before the termination point, 20 μL of MTT were added to measure cellular viability. The resultant formazan crystals were dissolved in 50 μL of DMSO, and absorbance was measured at 570 nm and 630 nm wavelengths. IC50, GI50, TGI and LC50 values were calculated using OriginPro 8.5.1.
(§3) Evaluation of the antiproliferative activities of the novel molecules. […] These four cell lines were treated with each compound at three concentrations (5, 25 and 50 μM) for 48 h.

HT-29 (CRC) = assay: MTT cell viability assay, HT-29; settings: for GI50 / IC50 / viability at 5 µM / viability at 25 µM / viability at 50 µM: Homo sapiens; for viability at 5 µM / viability at 25 µM / viability at 50 µM: read-out: cell viability
Procedure: as §1, §2, §3

HCT-116 CRC cells = assay: MTT cell viability assay, HCT-116; type: cell-based, human; settings: Homo sapiens, read-out: IC50
Procedure: as §1, §2

H1299 (lung carcinoma) = assay: MTT cell viability assay, H1299; settings: Homo sapiens, NCI-H1299, 48 h, read-out: cell viability
Procedure: as §1, §2, §3

[2] = system: DU-145 (prostate carcinoma); assay: MTT cell viability assay, DU-145; settings: Homo sapiens, DU-145, 48 h, read-out: cell viability
Procedure: as §1, §2, §3

RKO CRC cells = assay: cells; settings: Homo sapiens
Procedure: as §1, §2

CACO-2 CRC cells = assay: cells; settings: Homo sapiens
Procedure: as §1, §2

Compound	viability at 5 µM [1] [%]	viability at 25 µM [1] [%]	viability at 50 µM [1] [%]	TGI (HT-29 (CRC); HT-29, 24 h) [µM]	TGI (HT-29 (CRC); HT-29, 48 h) [µM]	TGI (HT-29 (CRC); HT-29, 72 h) [µM]	GI50 (HT-29 (CRC); HT-29, 24 h) [µM]	IC50 (HT-29 (CRC); HT-29, 24 h) [µM]	GI50 (HT-29 (CRC); HT-29, 48 h) [µM]	IC50 (HT-29 (CRC); HT-29, 48 h) [µM]	viability at 5 µM (HT-29 (CRC); HT-29, 48 h) [%]	viability at 25 µM (HT-29 (CRC); HT-29, 48 h) [%]	viability at 50 µM (HT-29 (CRC); HT-29, 48 h) [%]	GI50 (HT-29 (CRC); HT-29, 72 h) [µM]	IC50 (HT-29 (CRC); HT-29, 72 h) [µM]	IC50 (HCT-116 CRC cells; HCT-116, 24 h) [µM]	IC50 (HCT-116 CRC cells; HCT-116, 48 h) [µM]	IC50 (HCT-116 CRC cells; HCT-116, 72 h) [µM]	viability at 5 µM (H1299 (lung carcinoma)) [%]	viability at 25 µM (H1299 (lung carcinoma)) [%]	further results
CC1=C(CC(=O)O)c2cc(F)ccc2/C1=C\c1ccc([S+](C)[O-])cc1 (stereo not drawn) [Sulin, sulindac, reference compound]	88 ± 22.5	90.6 ± 28.9	84.5 ± 32.7	>50	>50	>50	> 50	> 50	> 50	> 50	99.1 ± 2.4	97.3 ± 2.1	98.6 ± 3.1	> 50	> 50	> 50	> 50	> 50	87.5 ± 2.5	72.5 ± 2.7	viability at 50 µM (H1299 (lung carcinoma)): 84.9 ± 12.1%; viability at 5 µM [2]: 82.2 ± 1.9%; viability at 25 µM [2]: 83.2 ± 7.2%; viability at 50 µM [2]: 85.5 ± 3.7%; IC50 (RKO CRC cells; 24 h): > 50 µM; IC50 (RKO CRC cells; 48 h): > 50 µM; IC50 (RKO CRC cells; 72 h): > 50 µM; IC50 (CACO-2 CRC cells; Caco-2, 24 h): > 50 µM; IC50 (CACO-2 CRC cells; Caco-2, 48 h): > 50 µM; IC50 (CACO-2 CRC cells; Caco-2, 72 h): > 50 µM
COc1ccc2c(c1)c(CC(=O)O)c(C)n2C(=O)c1ccc(Cl)cc1 [Inn, indomethacin, reference compound]	94.1 ± 8.3	85.9 ± 10.5	83.2 ± 6.3	>50	>50	>50	> 50	> 50	> 50	> 50	100 ± 8.4	99.8 ± 14.2	98.3 ± 13.4	> 50	> 50	> 50	> 50	> 50	76 ± 23.7	70.4 ± 19.8	viability at 50 µM (H1299 (lung carcinoma)): 66.2 ± 14%; viability at 5 µM [2]: 89.6 ± 12.3%; viability at 25 µM [2]: 97.6 ± 21%; viability at 50 µM [2]: 96.2 ± 18.5%; IC50 (RKO CRC cells; 24 h): > 50 µM; IC50 (RKO CRC cells; 48 h): > 50 µM; IC50 (RKO CRC cells; 72 h): > 50 µM; IC50 (CACO-2 CRC cells; Caco-2, 24 h): > 50 µM; IC50 (CACO-2 CRC cells; Caco-2, 48 h): > 50 µM; IC50 (CACO-2 CRC cells; Caco-2, 72 h): > 50 µM
